# Results: US20080014186A1, “Hla-A24 or Hla-A2 Binding Peptides of Parathyroid Hormone-Related Protein” (GREEN PEPTIDE CO., LTD., priority 2004, published 2008)
# Key:
# [1] = test system: PBMCs of HLA-A24^+ healthy donors and prostate cancer patients; assay: Assay for peptide-specific CTLs in PBMCs (IFN-γ ELISA, peptide-pulsed C1R-A24 cells); type: cell-based, human; conditions: for IFN-γ production: C1R-A24 cells, HIV peptide background subtracted
# Method: To investigate the immunogenicity of these four PTHrP peptides, the PBMCs of 10 HLA-A24^+ healthy donors and 10 HLA-A24^+ prostate cancer patients were stimulated with each of the four PTHrP peptides and were examined for their IFN-γ production in response to C1R-A24 cells, which were pre-pulsed with either a corresponding PTHrP peptide or the HIV peptide. Flu- and EBV-derived peptides were used as controls.
# The assay for detection of peptide-specific CTLs in PBMCs was performed according to a previously reported method. In brief, PBMCs (1 X 10^5 cells/well) were incubated with […] of each peptide in a U-bottom-type 96-well microculture plate (Nunc, Roskilde, Denmark) at a volume of 200 μl of culture medium. The culture medium consisted of 45% RPMI-1640, 45% AIM-V medium (Gibco BRL), 10% FCS, 100 U/ml of IL-2, and 0.1 mM MEM nonessential amino acid solution (Gibco, BRL). Half of the culture medium was removed and replaced with new medium containing a corresponding peptide (20 μg/ml) every 3 days. On the 15th day of culture, the cultured cells were separated into 4 wells, and two wells were used for PTHrP peptide-pulsed C1R-A24 cells, and the other two wells were used for the HIV peptide-pulsed C1R-A24 cells. After an 18-hr incubation period, the supernatants were collected, and the level of IFN-γ was determined by ELISA (limit of sensitivity: 10 pg/ml).
# The assay was carried out in quadruplicate, and the mean of two wells which show the highest significance compared to the control is shown in Table 1.
# It was then determined whether PBMCs stimulated by either the PTHrP 36-44 or the PTHrP 102-111 peptide could induce prostate cancer-reactive CTLs from HLA-A24^+ healthy donors and prostate cancer patients. PBMCs from HLA-A24^+ healthy donors and prostate cancer patients were repeatedly stimulated with these PTHrP peptides. On day 15, half of the cultured cells were harvested, pooled from 4 wells, and cultured with C1R-A24 cells, which were pre-pulsed with the HIV peptide (open symbol) and the indicated PTHrP peptide (closed symbol) for 18-hr. The levels of IFN-γ in the supernatants were then determined by ELISA.
# [2] = test system: IgG in plasma of HLA-A24^+ healthy donors and prostate cancer patients; assay: Peptide-specific IgG in plasma by ELISA (HLA-A24-binding PTHrP peptides); parameters: species or system human; conditions: for IgG reactive to the peptide in plasma: 1:100-diluted plasma
# Source text: The inventors previously reported that IgGs reactive to CTL epitope peptides were detected in healthy donors and patients with various types of cancers. IgGs reactive to prostate-related antigens were also detected in healthy donors and prostate cancer patients. It was examined, therefore, whether IgG reactive to the four PTHrP-derived peptides, PTHrP 36-44, PTHrP 102-111, PTHrP 25-34, and PTHrP 110-119, could be detected in the plasma of cancer patients and healthy donors.
# Peptide-specific IgG levels in the plasma were measured by ELISA, as previously reported. In brief, peptide (20 μg/well)-immobilized plates were blocked with Block Ace (Yukijirushi, Tokyo, Japan) and washed with 0.05% Tween20-PBS, after which 100 μl/well of plasma sample diluted with 0.05% Tween20-Block Ace was added to the plate. After 2 hours incubation at 37° C., the plates were washed and further incubated for 2 hours with a 1:1000-diluted rabbit anti-human IgG (γ-chain-specific) (DAKO, Glostrup, Denmark). The plates were washed, and then 100 μl of 1:100-diluted goat anti-rabbit IgG-conjugated horseradish peroxidase (EnVision, DAKO) was added to each well, and the plates were then incubated at room temperature for 40 min. After the plates were washed once, 100 μl/well of tetramethyl benzidine substrate solution (KPL, Guildford, UK) was added, and the reaction was stopped by the addition of 1 M phosphoric acid. The values are shown as optical density (OD) units/ml, and responses to the HIV peptide were subtracted. IgG reactive to a corresponding PTHrP peptide was judged to be positive when the difference of the OD in 1:100-diluted plasma exceeded 0.05. The results that IgG reactive to either the PTHrP102-111 or the […] peptide was detected in 8 of 10 healthy donors and in 7 of 10 prostate cancers are shown in Table 2 hereinafter.
# To confirm the specificity of IgG to the indicated PTHrP peptide, 100 μl of sample plasma from either HD #1 and Pt #6 was cultured in a plate pre-coated with either a corresponding PTHrP peptide or an irrelevant PTHrP peptide. Thereafter, the levels of IgG reactive to the PTHrP 102-111 peptide or the PTHrP 110-119 peptide in the resulting supernatants were determined by ELISA.
# [3] = HLA-A24^+ prostate cancer patient #1
# [4] = HLA-A24^+ prostate cancer patient #2
# [5] = HLA-A24^+ prostate cancer patient #3
# [6] = HLA-A24^+ prostate cancer patient #4
# [7] = HLA-A24^+ prostate cancer patient #5
# [8] = HLA-A24^+ prostate cancer patient #6
# [9] = HLA-A24^+ prostate cancer patient #7
# [10] = HLA-A24^+ prostate cancer patient #8
# [11] = HLA-A24^+ prostate cancer patient #9
# [12] = HLA-A24^+ prostate cancer patient #10
# [13] = HLA-A24^+ prostate cancer patients
sequence,measurement,setting,value
KVETYKEQPL [PTHrP 110-119],IFN-γ production,[1]; HLA-A24^+ healthy donor #1,394 pg/mL
same,IFN-γ production,[1]; HLA-A24^+ healthy donor #2,17 pg/mL
same,IFN-γ production,[1]; HLA-A24^+ healthy donor #3,20 pg/mL
same,IFN-γ production,[1]; HLA-A24^+ healthy donor #4,2 pg/mL
same,IFN-γ production,[1]; HLA-A24^+ healthy donor #5,38 pg/mL
same,IFN-γ production,[1]; HLA-A24^+ healthy donor #6,357 pg/mL
same,IFN-γ production,[1]; HLA-A24^+ healthy donor #7,0 pg/mL
same,IFN-γ production,[1]; HLA-A24^+ healthy donor #8,1017 pg/mL
same,IFN-γ production,[1]; HLA-A24^+ healthy donor #9,61 pg/mL
same,IFN-γ production,[1]; HLA-A24^+ healthy donor #10,0 pg/mL
same,"induced peptide-specific CTLs, number of donors",[1]; HLA-A24^+ healthy donors,3 of 10
same,Total (donors with significant peptide-specific IFN-γ production / donors tested),"[1]; HLA-A24^+ healthy donors, p < 0.05",3/10
same,IFN-γ production,[1]; [3],0 pg/mL
same,IFN-γ production,[1]; [4],9 pg/mL
same,IFN-γ production,[1]; [5],38 pg/mL
same,IFN-γ production,[1]; [6],19 pg/mL
same,IFN-γ production,[1]; [7],10 pg/mL
same,IFN-γ production,[1]; [8],14 pg/mL
same,IFN-γ production,[1]; [9],0 pg/mL
same,IFN-γ production,[1]; [10],23 pg/mL
same,IFN-γ production,[1]; [11],0 pg/mL
same,IFN-γ production,[1]; [12],118 pg/mL
same,"induced peptide-specific CTLs (peptide-specific IFN-γ production), number of patients",[1]; [13],1 of 10
same,Total (patients with significant peptide-specific IFN-γ production / patients tested),"[1]; HLA-A24^+ prostate cancer patients, p < 0.05",1/10
same,IgG reactive to the peptide in plasma,[2]; HLA-A24^+ healthy donor #1,+ (IgG reactive to a corresponding peptide was judged to be positive when the difference of the OD in 1:100-diluted plasma exceeded 0.05.)
same,IgG reactive to the peptide in plasma,[2]; HLA-A24^+ healthy donor #2,+ (IgG reactive to a corresponding peptide was judged to be positive when the difference of the OD in 1:100-diluted plasma exceeded 0.05.)
same,IgG reactive to the peptide in plasma,[2]; HLA-A24^+ healthy donor #3,+ (IgG reactive to a corresponding peptide was judged to be positive when the difference of the OD in 1:100-diluted plasma exceeded 0.05.)
same,IgG reactive to the peptide in plasma,[2]; HLA-A24^+ healthy donor #4,− (IgG reactive to a corresponding peptide was judged to be positive when the difference of the OD in 1:100-diluted plasma exceeded 0.05.)
same,IgG reactive to the peptide in plasma,[2]; HLA-A24^+ healthy donor #5,+ (IgG reactive to a corresponding peptide was judged to be positive when the difference of the OD in 1:100-diluted plasma exceeded 0.05.)
same,IgG reactive to the peptide in plasma,[2]; HLA-A24^+ healthy donor #6,− (IgG reactive to a corresponding peptide was judged to be positive when the difference of the OD in 1:100-diluted plasma exceeded 0.05.)
same,IgG reactive to the peptide in plasma,[2]; HLA-A24^+ healthy donor #7,+ (IgG reactive to a corresponding peptide was judged to be positive when the difference of the OD in 1:100-diluted plasma exceeded 0.05.)
same,IgG reactive to the peptide in plasma,[2]; HLA-A24^+ healthy donor #8,+ (IgG reactive to a corresponding peptide was judged to be positive when the difference of the OD in 1:100-diluted plasma exceeded 0.05.)
same,IgG reactive to the peptide in plasma,[2]; HLA-A24^+ healthy donor #9,+ (IgG reactive to a corresponding peptide was judged to be positive when the difference of the OD in 1:100-diluted plasma exceeded 0.05.)
same,IgG reactive to the peptide in plasma,[2]; HLA-A24^+ healthy donor #10,+ (IgG reactive to a corresponding peptide was judged to be positive when the difference of the OD in 1:100-diluted plasma exceeded 0.05.)
same,"IgG reactive to the peptide detected, number of donors",[2]; HLA-A24^+ healthy donors,8 of 10
same,Total (IgG-positive donors / donors tested),[2]; HLA-A24^+ healthy donors,8/10
same,IgG reactive to the peptide in plasma,[2]; [3],+ (IgG reactive to a corresponding peptide was judged to be positive when the difference of the OD in 1:100-diluted plasma exceeded 0.05.)
same,IgG reactive to the peptide in plasma,[2]; [4],+ (IgG reactive to a corresponding peptide was judged to be positive when the difference of the OD in 1:100-diluted plasma exceeded 0.05.)
same,IgG reactive to the peptide in plasma,[2]; [5],− (IgG reactive to a corresponding peptide was judged to be positive when the difference of the OD in 1:100-diluted plasma exceeded 0.05.)
same,IgG reactive to the peptide in plasma,[2]; [6],− (IgG reactive to a corresponding peptide was judged to be positive when the difference of the OD in 1:100-diluted plasma exceeded 0.05.)
same,IgG reactive to the peptide in plasma,[2]; [7],− (IgG reactive to a corresponding peptide was judged to be positive when the difference of the OD in 1:100-diluted plasma exceeded 0.05.)
same,IgG reactive to the peptide in plasma,[2]; [8],+ (IgG reactive to a corresponding peptide was judged to be positive when the difference of the OD in 1:100-diluted plasma exceeded 0.05.)
same,IgG reactive to the peptide in plasma,[2]; [9],+ (IgG reactive to a corresponding peptide was judged to be positive when the difference of the OD in 1:100-diluted plasma exceeded 0.05.)
same,IgG reactive to the peptide in plasma,[2]; [10],+ (IgG reactive to a corresponding peptide was judged to be positive when the difference of the OD in 1:100-diluted plasma exceeded 0.05.)
same,IgG reactive to the peptide in plasma,[2]; [11],+ (IgG reactive to a corresponding peptide was judged to be positive when the difference of the OD in 1:100-diluted plasma exceeded 0.05.)
same,IgG reactive to the peptide in plasma,[2]; [12],+ (IgG reactive to a corresponding peptide was judged to be positive when the difference of the OD in 1:100-diluted plasma exceeded 0.05.)
same,"IgG reactive to the peptide detected, number of patients",[2]; [13],7 of 10
same,Total (IgG-positive patients / patients tested),[2]; [13],7/10
same,Peptide-specific absorption of IgG (level after culturing plasma in corresponding peptide-coated wells),"[2]; plasma from HD #1 and Pt #6, FIG. 3B",significantly diminished
